In patent US11021481B2, “Substituted isoindolin-1-ones and 2,3-dihydro-1h-pyrrolo[3,4-c]pyridin-1-ones as HPK1 antagonists” (Nimbus Saturn, Inc., priority 2019, dated 2021):

target: HPK1 (Homo sapiens (Human), UniProt Q92918); test: HPK1 biochemical enzyme assay (microfluidic mobility shift assay); settings: 1.5 nM HPK1, ATP 1 mM final, 30 min preincubation, 60 min at RT, Caliper EZ Reader; read-out: HPK1 1000UMATP caliper IC50
Summary of the method: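 Mobility shift readout of HPK1 activity after a 60 min RT reaction with 1 mM ATP, 1 μM substrate and 5 mM MgCl2. Enzyme/substrate mix was first exposed to compounds for 30 min, using ten-point curves topping at 3 μM final.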

HPK1, sequence (Q92918 whole entry): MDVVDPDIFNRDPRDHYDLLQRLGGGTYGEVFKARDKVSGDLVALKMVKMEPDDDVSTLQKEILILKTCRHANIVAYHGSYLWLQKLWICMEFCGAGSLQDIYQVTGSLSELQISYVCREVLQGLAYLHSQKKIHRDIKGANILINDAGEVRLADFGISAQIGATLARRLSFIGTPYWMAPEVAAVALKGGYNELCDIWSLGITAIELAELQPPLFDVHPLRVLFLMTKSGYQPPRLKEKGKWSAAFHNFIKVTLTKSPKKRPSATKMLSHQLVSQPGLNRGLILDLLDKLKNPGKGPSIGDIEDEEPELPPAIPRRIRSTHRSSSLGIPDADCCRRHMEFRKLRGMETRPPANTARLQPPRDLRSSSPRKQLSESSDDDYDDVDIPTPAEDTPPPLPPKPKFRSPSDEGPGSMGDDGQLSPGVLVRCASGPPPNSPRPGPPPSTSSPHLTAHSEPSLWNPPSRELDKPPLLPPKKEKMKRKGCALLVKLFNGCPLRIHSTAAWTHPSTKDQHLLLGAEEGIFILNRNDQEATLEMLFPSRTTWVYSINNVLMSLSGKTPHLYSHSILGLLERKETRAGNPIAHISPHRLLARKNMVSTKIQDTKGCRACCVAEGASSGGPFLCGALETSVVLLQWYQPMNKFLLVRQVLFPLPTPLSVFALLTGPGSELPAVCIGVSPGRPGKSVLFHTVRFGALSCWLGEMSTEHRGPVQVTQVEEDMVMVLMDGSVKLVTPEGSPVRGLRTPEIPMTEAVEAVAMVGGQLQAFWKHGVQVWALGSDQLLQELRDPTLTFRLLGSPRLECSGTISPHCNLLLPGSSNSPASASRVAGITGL

| Compound | IC50 [nM] |
| --- | --- |
| CNC1CCN(c2ccc(Nc3ccc(-c4cnc5ccccn45)c4c3C(=O)NC4)nc2)CC1 [I-58, 4-imidazo[1,2-a]pyridin-3-yl-7-[[5-[4-(methylamino)-1-piperidyl]-2-pyridyl]amino] isoindolin-1-one] | < 100 |
| CN1CCN(c2ccc(Nc3ccc(-c4cnc5cccnn45)c4c3C(=O)NC4)nc2)CC1 [I-59, 4-imidazo[1,2-b]pyridazin-3-yl-7-[[5-(4-methylpiperazin-1-yl)-2-pyridyl]amino] isoindolin-1-one] | < 100 |
| O=C1NCc2c(-c3cnc4ccccn34)ccc(Nc3ccc(N4CCNCC4)cn3)c21 [I-60, 4-imidazo[1,2-a]pyridin-3-yl-7-[(5-piperazin-1-yl-2-pyridyl)amino] isoindolin-1-one] | < 100 |
| CN1CCN(c2ccc(Nc3ccc(-c4ccnc5c4cnn5C)c4c3C(=O)NC4)nc2)CC1 [I-61, 7-[[5-(4-methylpiperazn-1-yl)-2-pyridyl]amino]-4-(1-methylpyrazolo [3,4-b]pyridin-4-yl)isoindolin-1-one] | 100 to 1000 |
| CNC1CCN(c2ccc(Nc3ccc(-c4ccnc5c4ccn5C)c4c3C(=O)NC4)nc2)CC1 [I-62, 7-[[5-[4-(methylamino)-1-piperidyl]-2-pyridyl]amino]-4-(1-methylpyrrolo [2,3-b]pyridin-4-yl)isoindolin-1-one] | < 100 |
| O=C1NCc2c(-c3cnc4ccccn34)ncc(Nc3ccc(N4CCNCC4)cn3)c21 [I-63, 4-imidazo[1,2-a]pyridin-3-yl-7-[(5-piperazin-1-yl-2-pyridyl)amino]-2,3-dihydropyrrolo [3,4-c]pyridin-1-one] | < 100 |
| Cc1ccn2c(-c3ccc(Nc4ccc(N5CCN(C)CC5)cn4)c4c3CNC4=O)cnc2c1 [I-64, 4-(7-methylimidazo [1,2-a]pyridin-3-yl)-7-[[5-(4-methylpiperazin-1-yl)-2-pyridyl]amino] isoindolin-1-one] | < 100 |
| Cc1ccc2c(-c3ccc(Nc4ccc(N5CCN(C)CC5)cn4)c4c3CNC4=O)cnn2c1 [I-65, 7-[[5-(4-methylpiperazin-1-yl)-2-pyridyl]amino]-4-(6-methylpyrazolo [1,5-a]pyridin-3-yl)isoindolin-1-one] | < 100 |
| CN1CCN(c2ccc(Nc3ccc(-c4ccnc5ccn(C)c45)c4c3C(=O)NC4)nc2)CC1 [I-66, 7-[[5-(4-methylpiperazin-1-yl)-2-pyridyl]amino]-4-(1-methylpyrrolo [3,2-b]pyridin-7-yl)isoindolin-1-one] | 100 to 1000 |
| CN1CCN(c2ccc(Nc3ccc(-c4c(F)cnc5c4ccn5C)c4c3C(=O)NC4)nc2)CC1 [I-67, 4-(5-fluoro-1-methyl-pyrrolo[2,3-b]pyridin-4-yl)-7-[[5-(4-methylpiperazin-1-yl)-2-pyridyl]amino] isoindolin-1-one] | < 100 |
| CN1CCN(c2ccc(Nc3ccc(-c4ccnc5c4CCN5)c4c3C(=O)NC4)nc2)CC1 [I-68, 4-(2,3-dihydro-1H-pyrrolo[2,3-b]pyridin-4-yl)-7-[[5-(4-methylpiperazin-1-yl)-2-pyridyl]amino] isoindolin-1-one] | < 100 |
| Cc1cccc2c(-c3ccc(Nc4ccc(N5CCN(C)CC5)cn4)c4c3CNC4=O)cnn12 [I-69, 7-[[5-(4-methylpiperazin-1-yl)-2-pyridyl]amino]-4-(7-methylpyrazolo [1,5-a]pyridin-3-yl)isoindolin-1-one] | < 100 |
| Cn1ccc2c(-c3ccc(Nc4ccc(N5CC6CCC(C5)N6)cn4)c4c3CNC4=O)ccnc21 [I-70, 7-[[5-(3,8-diazabicyc1o [3,2.1]octan-3-yl)-2-pyridyl]amino]-4-(1-methylpyrrolo [2,3-b]pyridin-4-yl)isoindolin-1-one] | < 100 |
| CNC1CCN(c2ccc(Nc3ccc(-c4cnc5cc(C)ccn45)c4c3C(=O)NC4)nc2)CC1 [I-71, 7-[[5-[4-(methylamino)-1-piperidyl]-2-pyridyl]amino]-4-(7-methylimidazo [1,2-a]pyridin-3-yl)isoindolin-1-one] | < 100 |
| Cc1ccn2c(-c3ccc(Nc4ccc(N5CCNCC5)cn4)c4c3CNC4=O)cnc2c1 [I-72, 4-(7-methylimidazo [1,2-a]pyridin-3-yl)-7-[(5-piperazin-1-yl-2-pyridyl)amino] isoindolin-1-one] | < 100 |
| Cc1ccn2c(-c3ncc(Nc4ccc(N5CCN(C)CC5)cn4)c4c3CNC4=O)cnc2c1 [I-73, 4-(7-methylimidazo [1,2-a]pyridin-3-yl)-7-[[5-(4-methylpiperazin-1-yl)-2-pyridyl]-amino]-2,3-dihydropyrrolo [3,4-c]pyridin-1-] | < 100 |
| CN1CCN(c2ccc(Nc3ccc(-c4cnc5c(C#N)cccn45)c4c3C(=O)NC4)nc2)CC1 [I-74, 3-[7-[[5-(4-methylpiperazin-1-yl)-2-pyridyl]amino]-1-oxo-isoindolin-4-yl]imidazo[1,2-a]pyridine-8-carbonitrile] | < 100 |
| Cn1ccc2c(-c3ccc(Nc4ccc(N5CCC(O)CC5)cn4)c4c3CNC4=O)ccnc21 [I-75, 7-[[5-(4-hydroxy-1-piperidyl)-2-pyridyl]amino]-4-(1-methylpyrrolo [2,3-b]pyridin-4-yl)isoindolin-1-one] | < 100 |
| CN1CCN(c2ccc(Nc3ccc(-c4cnc5cnccn45)c4c3C(=O)NC4)nc2)CC1 [I-76, 4-imidazo[1,2-a]pyrazin-3-yl-7-[[5-(4-methylpiperazin-1-yl)-2-pyridyl]amino] isoindolin-1-one] | < 100 |

| Compound | IC50 [nM] |
| --- | --- |
| Cc1cc(-c2ccc(Nc3ccc(N4CCN(C)CC4)cn3)c3c2CNC3=O)c2cc[nH]c2n1 [I-77, 7-[[5-(4-methylpiperazin-1-yl)-2-pyridyl]amino]-4-(6-methyl-1H-pyrrolo[2,3-b]pyridin-4-yl)isoindolin-1-one] | 100 to 1000 |
| Cc1cnc2[nH]ccc2c1-c1ccc(Nc2ccc(N3CCN(C)CC3)cn2)c2c1CNC2=O [I-78, 7-[[5-(4-methylpiperazin-1-yl)-2-pyridyl]amino]-4-(5-methyl-1H-pyrrolo[2,3-b]pyridin-4-yl)isoindolin-1-one] | 100 to 1000 |
| Cn1ccc2c(-c3ccc(Nc4ccc(N5CCCNCC5)cn4)c4c3CNC4=O)ccnc21 [I-79, 7-[[5-(1,4-diazepan-1-yl)-2-pyridyl]amino]-4-(1-methylpyrrolo [2,3-b]pyridin-4-yl)isoindolin-1-one] | < 100 |
| O=C1NCc2c(-c3cnc4n3CCCC4)ccc(Nc3ccc(N4CCNCC4)cn3)c21 [I-80, 7-[(5-piperazin-1-yl-2-pyridyl)amino]-4-(5,6,7,8-tetrahydro-imidazo[1,2-a]pyridin-3-yl)isoindolin-1-one] | < 100 |
| CN1CCN(c2ccc(Nc3ccc(-c4ccnc5cc[nH]c45)c4c3C(=O)NC4)nc2)CC1 [I-81, 7-[[5-(4-methylpiperazin-1-yl)-2-pyridyl]amino]-4-(1H-pyrrolo[3,2-b]pyridin-7-yl)isoindolin-1-one] | < 100 |
| O=C1NCc2c(-c3cnc4cccnn34)ccc(Nc3ccc(N4CCNCC4)cn3)c21 [I-82, 4-imidazo[1,2-b]pyridazin-3-yl-7-[(5-piperazin-1-yl-2-pyridyl)amino] isoindolin-1-one] | < 100 |
| CN1CCN(c2ccc(Nc3ccc(-c4ncnc5c4ccn5C)c4c3C(=O)NC4)nc2)CC1 [I-83, 7-[[5-(4-methylpiperazin-1-yl)-2-pyridyl]amino]-4-(7-methylpyrrolo [2,3-d]pyrimidin-4-yl)isoindolin-1-one] | < 100 |
| Cc1cccc2c(-c3ccc(Nc4ccc(N5CCNCC5)cn4)c4c3CNC4=O)cnn12 [I-84, 4-(7-methylpyrazolo [1,5-a]pyridin-3-yl)-7-[(5-piperazin-1-yl-2-pyridyl)amino] isoindolin-1-one] | < 100 |
| CN1CCN(c2ccc(Nc3ccc(-c4nnc5ccccn45)c4c3C(=O)NC4)nc2)CC1 [I-85, 7-[[5-(4-methylpiperazin-1-yl)-2-pyridyl]amino]-4-([1,2,4]triazolo [4,3-a]pyridin-3-yl)isoindolin-1-one] | < 100 |
| Cc1ccc2ncc(-c3ccc(Nc4ccc(N5CCNCC5)cn4)c4c3CNC4=O)n2c1 [I-86, 4-(6-methylimidazo [1,2-a]pyridin-3-yl)-7-[(5-piperazin-1-yl-2-pyridyl)amino] isoindolin-1-one] | < 100 |
| O=C1NCc2c(-c3cnc4ncccn34)ccc(Nc3ccc(N4CCNCC4)cn3)c21 [I-87, 4-imidazo[1,2-a]pyrimidin-3-yl-7-[(5-piperazin-1-yl-2-pyridyl)amino] isoindolin-1-one] | < 100 |
| O=C1NCc2c(-c3cnc4c(F)cccn34)ccc(Nc3ccc(N4CCNCC4)cn3)c21 [I-88, 4-(8-fluoroimidazo [1,2-a]pyridin-3-yl)-7-[(5-piperazin-1-yl-2-pyridyl)amino] isoindolin-1-one] | < 100 |
| Cc1ccc2c(-c3ccc(Nc4ccc(N5CCNCC5)cn4)c4c3CNC4=O)cnn2c1 [I-89, 4-(6-methylpyrazolo[1,5-a]pyridin-3-yl)-7-[(5-piperazin-1-yl-2-pyridyl)amino] isoindolin-1-one] | < 100 |
| O=C1NCc2c(-c3cnn4ccccc34)ccc(Nc3ccc(N4CCNCC4)cn3)c21 [I-90, 7-[(5-piperazin-1-yl-2-pyridyl)amino]-4-pyrazolo[1,5-a]pyridin-3-yl-isoindolin-1-one] | < 100 |
| CNC1CCN(c2ccc(Nc3ccc(-c4cnc5cccnn45)c4c3C(=O)NC4)nc2)CC1 [I-91, 4-imidazo[1,2-b]pyridazin-3-yl-7-[[5-[4-(methylamino)-1-piperidyl]-2-pyridyl]amino] isoindolin-1-one] | < 100 |
| CN1CCN(c2ccc(Nc3ccc(-c4cnc5n4CCNC5)c4c3C(=O)NC4)nc2)CC1 [I-92] | < 100 |
| CN1CCc2c(-c3ccc(Nc4ccc(N5CCNCC5)cn4)c4c3CNC4=O)ccnc21 [I-93, 4-(1-methyl-2,3-dihydropyrrolo [2,3-b]pyridin-4-yl)-7-[(5-piperazin-1-yl-2-pyridyl)amino] isoindolin-1-one] | < 100 |
| Cn1ccc2c(-c3ccc(Nc4ccc(N5CCC[C@H](N)C5)cn4)c4c3CNC4=O)ccnc21 [I-94, 7-[[5-[(3S)-3-amino-1-piperipyl]-2-pyridyl]amino]-4-(l-methylpyrrolo [2,3-b]pyridin-4-yl)isoindolin-1-one] | < 100 |
